Laboratory results from US9469645B2, “Compounds and compositions for the treatment of parasitic diseases” (Novartis AG, priority 2009, dated 2016).
pEC50: −log10 of the molar value.

How the values were obtained:
3D7 P. falciparum strain = experiment: parasite proliferation assay in infected red blood cells (SYBR Green I); type: cell-based, Plasmodium falciparum; conditions: Plasmodium falciparum, 3D7, Erythrocyte, 3D7 strain; read-out: EC50 3D7 strain
Method in brief: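 P. falciparum 3D7 grown in O+ human erythrocytes to 3–8% parasitemia and exposed to compounds. Proliferation read as the increase in parasite DNA. Detection used SYBR Green I in saponin/triton-X/EDTA lysis buffer, with overnight lysis at room temperature.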

W2 strain = experiment: parasite proliferation assay in infected red blood cells (SYBR Green I), W2 strain; type: cell-based; conditions: Plasmodium falciparum, Erythrocyte
From the text: Compounds of the invention can be assayed to measure their capacity to inhibit proliferation of parasitemia in infected red blood cells. The proliferation is quantified by the addition of SYBR Green I (INVITROGEN)® dye which has a high affinity for double stranded DNA.

Row | SMILES | pEC50 (3D7 P. falciparum strain) | pEC50 (W2 strain)
1 | CC1(C)c2nc(-c3ccc(F)cc3)c(Nc3cccc(C(F)(F)F)c3)n2CCN1C(=O)CN [Compound 652] | 7.72 | 7.92
2 | CC1(C)c2nc(-c3ccc(F)cc3)c(Nc3cccc(C#N)c3)n2CCN1C(=O)CN [Compound 653] | 8.22 | 8.05
3 | Cc1ccc(Nc2c(-c3ccc(F)cc3)nc3n2CCN(C(=O)CN)C3(C)C)cc1C [Compound 654] | 8.30 | 8.22
4 | CC1(C)c2nc(-c3ccc(F)cc3)c(Nc3ccc(C#N)c(C(F)(F)F)c3)n2CCN1C(=O)CN [Compound 655] | 7.77 | 7.70
5 | Cc1cc(C)cc(Nc2c(-c3ccc(F)cc3)nc3n2CCN(C(=O)CN)C3(C)C)c1 [Compound 656] | 8.22 | 8.15
6 | CC1(C)c2nc(-c3ccc(F)cc3)c(Nc3ccc(F)c(C(F)(F)F)c3)n2CCN1C(=O)CN [Compound 657] | 6.21 | 5.96
7 | CC1(C)c2nc(-c3ccc(F)cc3)c(Nc3ccc(C(F)(F)F)c(Cl)c3)n2CCN1C(=O)CN [Compound 658] | 8.30 | 8.22
8 | Cc1cc(Nc2c(-c3ccc(F)cc3)nc3n2CCN(C(=O)CN)C3(C)C)ccc1Cl [Compound 659] | 5.36 | 5.28
9 | CC1(C)c2nc(-c3ccc(F)cc3)c(NC3CCC(F)(F)CC3)n2CCN1C(=O)CN [Compound 660] | 8.52 | 8.22
10 | CC1(C)c2nc(-c3ccc(F)cc3)c(NC3CCC(c4ccccc4)CC3)n2CCN1C(=O)CN (stereo not drawn) [Compound 661] | 6.47 | 6.28
11 | CC1(C)c2nc(-c3ccc(F)cc3)c(NC3CCC(C(F)(F)F)CC3)n2CCN1C(=O)CN (stereo not drawn) [Compound 662] | 7.42 | 7.48
12 | CC(C)(C)C1CCC(Nc2c(-c3ccc(F)cc3)nc3n2CCN(C(=O)CN)C3(C)C)CC1 (stereo not drawn) [Compound 663] | 5.97 | 5.78
13 | CC1CCCCC1Nc1c(-c2ccc(F)cc2)nc2n1CCN(C(=O)CN)C2(C)C (stereo not drawn) [Compound 664] | 5.43 | 5.39
14 | CC1(C)c2nc(-c3ccc(F)cc3)c(NC3CCCCCC3)n2CCN1C(=O)CN [Compound 665] | 6.99 | 7.16
15 | CC1CC(Nc2c(-c3ccc(F)cc3)nc3n2CCN(C(=O)CN)C3(C)C)CC(C)(C)C1 (stereo not drawn) [Compound 666] | < 5.00 | 5.30
16 | CC1(C)c2nc(-c3ccc(F)cc3)c(N[C@@H]3C[C@H]4CC[C@@H]3C4)n2CCN1C(=O)CN [Compound 667] | 6.98 | 7.09
17 | CN(C)C1CCN(c2c(-c3ccc(F)cc3)nc3n2CCN(C(=O)CN)C3(C)C)C1 (stereo not drawn) [Compound 668] | 5.46 | < 5.00
18 | CC1(C)c2nc(-c3ccc(F)cc3)c(N3CCC(N4CCCCC4)CC3)n2CCN1C(=O)CN [Compound 669] | 5.40 | < 5.00
19 | CC1(C)c2nc(-c3ccc(F)cc3)c(NC3CCCC3)n2CCN1C(=O)CN [Compound 670] | 6.40 | 6.15

Row | SMILES | pEC50 (3D7 P. falciparum strain) | pEC50 (W2 strain)
20 | CC1(C)c2nc(-c3ccc(F)cc3)c(NC3CCC3)n2CCN1C(=O)CN [Compound 671] | 5.89 | 5.96
21 | CC1(C)c2nc(-c3ccc(F)cc3)c(NC3CCOCC3)n2CCN1C(=O)CN [Compound 672] | 5.01 | 5.15
22 | CN1CCC(N2CCN(c3c(-c4ccc(F)cc4)nc4n3CCN(C(=O)CN)C4(C)C)CC2)CC1 [Compound 673] | 5.05 | < 5.06
23 | CCC(C)CNc1c(-c2ccc(F)cc2)nc2n1CCN(C(=O)CN)C2(C)C (stereo not drawn) [Compound 674] | 5.20 | 5.20
24 | Cc1ccc(Nc2c(-c3ccc(F)cc3)nc3n2CC(=O)N(CCN(C)C)C3(C)C)cc1F [Compound 681] | 6.57 | 6.71
25 | Cc1ccc(Nc2c(-c3ccc(F)cc3)nc3n2CC(=O)N(CCN(C)C)C3(C)C)cc1Cl [Compound 682] | 6.91 | 6.95
26 | Cc1cc(Nc2c(-c3ccc(F)cc3)nc3n2CC(=O)N(CCN(C)C)C3(C)C)ccc1F [Compound 683] | 6.90 | 6.95
27 | Cc1cc(Nc2c(-c3ccc(F)cc3)nc3n2CC(=O)N(CCN(C)C)C3(C)C)ccc1Cl [Compound 684] | 7.52 | 7.77
28 | CN(C)CCN1C(=O)Cn2c(nc(-c3ccc(F)cc3)c2Nc2ccc(Cl)c(F)c2)C1(C)C [Compound 685] | 6.76 | 6.88
29 | Cc1cc(Nc2c(-c3cccc(F)c3)nc3n2CC(=O)N(CC2CNC2)C3(C)C)ccc1F [Compound 686] | 6.20 | 6.28
30 | Cc1cc(Nc2c(-c3cccc(F)c3)nc3n2CC(=O)N(CCCN)C3(C)C)ccc1F [Compound 689] | 6.29 | 6.53
31 | Cc1cc(Nc2c(-c3cccc(F)c3)nc3n2CC(=O)N(CCCO)C3(C)C)ccc1F [Compound 690] | 6.06 | 6.12
32 | COCCCN1C(=O)Cn2c(nc(-c3cccc(F)c3)c2Nc2ccc(F)c(C)c2)C1(C)C [Compound 691] | 7.17 | 7.22
33 | Cc1cc(Nc2c(-c3cccc(F)c3)nc3n2CC(=O)N(CCCC(=O)O)C3(C)C)ccc1F [Compound 692, 4-(3-(4-fluoro-3-methylphenylamino)-2-(3-fluorophenyl)-8,8-dimethyl-6-oxo-5,6-dihydroimidazo[1,2-a]pyrazin-7(8H)-yl)butanoic acid] | 5.19 | 5.27
34 | CC1(C)c2nc(-c3ccc(F)cc3)c(Cc3ccc(F)cc3)n2CCN1C(=O)CN [Compound 693] | 8.10 | 8.10
35 | Cc1ccc(Cc2c(-c3ccc(F)cc3)nc3n2CCN(C(=O)CN)C3(C)C)cc1 [Compound 694] | 7.96 | 8.15
36 | COc1ccc(Cc2c(-c3ccc(F)cc3)nc3n2CCN(C(=O)CN)C3(C)C)cc1 [Compound 695, 2-amino-1-(2-(4-fluorophenyl)-3-(4-methoxybenzyl)-8,8-dimethyl-5,6-dihydroimidazol[1,2-a]pyrazin-7(8H)-yl)ethanone] | 7.77 | 7.72
37 | CC1(C)c2nc(-c3ccc(F)cc3)c(Cc3ccc(F)c(F)c3)n2CCN1C(=O)CN [Compound 696] | 7.70 | 7.66
38 | CC(C)(N)C(=O)N1CCn2c(nc(-c3ccc(F)cc3)c2Cc2ccc(F)cc2)C1 [Compound 697] | 6.44 | 6.59

Row | SMILES | pEC50 (3D7 P. falciparum strain) | pEC50 (W2 strain)
39 | CN1CCN(Cc2c(-c3ccc(F)cc3)nc3n2CCN(C(=O)CN)C3(C)C)CC1 [Compound 698] | 5.06 | 5.04
40 | Cc1ccc(CC(N)C(=O)N2CCn3cc(-c4ccc(F)cc4)nc3C2(C)C)cc1 (stereo not drawn) [Compound 700, 2-amino-1-(2-(4-fluorophenyl)-8,8-dimethyl-5,6-dihydroimidazo[1,2-a]pyrazin-7(8H)-yl)-3-p-tolylpropan-1-one] | < 5.02 | 5.15
41 | CC1(C)c2nc(-c3ccc(F)cc3)cn2CCN1C(=O)C(N)CCc1cccc(F)c1 (stereo not drawn) [Compound 701] | 5.08 | 5.13
42 | CC1(C)c2nc(-c3ccc(F)cc3)cn2CCN1C(=O)C(N)CCc1ccc(Cl)cc1 (stereo not drawn) [Compound 702] | 5.22 | 5.23
43 | CC1(C)c2nc(-c3ccc(F)cc3)cn2CCN1C(=O)C(N)CC1CCCCC1 (stereo not drawn) [Compound 703] | 5.07 | 5.08
44 | Cc1ccc(-c2c(-c3ccc(F)cc3)nc3n2CCN(C(=O)CN)C3(C)C)cc1 [Compound 704, 2-amino-1-(2-(4-fluorophenyl)-8,8-dimethyl-3-p-tolyl-5,6-dihydroimidazo-[1,2-a]pyrazin-7(8H)-yl)ethanone] | 6.63 | 6.63
45 | CC1(C)c2nc(-c3ccc(F)cc3)c(-c3ccc(F)cc3)n2CCN1C(=O)CN [Compound 705] | 5.91 | 6.12
46 | CC1(C)c2nc(-c3ccc(F)cc3)c(-c3ccc(F)c(Cl)c3)n2CCN1C(=O)CN [Compound 706] | 6.60 | 6.63
47 | CC1(C)NCCn2c1nc(-c1ccc(F)cc1)c2C(=O)Nc1ccc(F)cc1 [Compound 707, N,2-bis(4-fluorophenyl)-8,8-dimethyl-5,6,7,8-tetrahydroimidazo[1,2-a]pyrazine-3-carboxamide] | 5.18 | < 5.00
48 | CC1(C)c2nc(-c3ccc(F)cc3)c(C(=O)Nc3ccc(F)cc3)n2CCN1C(=O)CN [Compound 708] | 6.09 | 5.95
49 | CC1(C)c2nc(-c3ccc(F)cc3)c(Oc3ccc(F)cc3)n2CCN1C(=O)CN [Compound 709, 2-amino-1-(3-(4-fluorophenoxy)-2-(4-fluorophenyl)-8,8-dimethyl-5,6-dihydroimidazo[1,2-a]pyrazin-7(8H)-yl)ethanone] | 8.52 | 8.10
50 | CC1(C)c2nc(-c3ccc(F)cc3)c(Sc3cccc(F)c3)n2CCN1C(=O)CN [Compound 714] | 8.15 | 8.40
51 | CC1(C)c2nc(-c3ccc(F)cc3)c(Sc3ccc(F)cc3)n2CCN1C(=O)CN [Compound 715] | 8.22 | 8.22
52 | CC1(C)c2nc(-c3ccc(F)cc3)c(Sc3ccc(Cl)cc3)n2CCN1C(=O)CN [Compound 716] | 8.70 | 9.00
53 | Cc1cc(C)cc(Sc2c(-c3ccc(F)cc3)nc3n2CCN(C(=O)CN)C3(C)C)c1 [Compound 717] | 7.59 | 7.80
54 | CC1(C)c2nc(-c3ccc(F)cc3)c(Sc3ccc(F)c(F)c3)n2CCN1C(=O)CN [Compound 718] | 8.10 | 8.22
55 | CC1(C)c2nc(-c3ccc(F)cc3)c([S+]([O-])c3cccc(F)c3)n2CCN1C(=O)CN (stereo not drawn) [Compound 719] | 6.32 | 6.44
56 | CC1(C)c2nc(-c3ccc(F)cc3)c([S+]([O-])c3ccc(F)cc3)n2CCN1C(=O)CN (stereo not drawn) [Compound 720] | 7.15 | 7.16
57 | Cc1cc(C)cc([S+]([O-])c2c(-c3ccc(F)cc3)nc3n2CCN(C(=O)CN)C3(C)C)c1 (stereo not drawn) [Compound 722] | 6.42 | 6.55
